Assay results from the supplement of paper PMC10307832.

Key:
Test in all cases: relative viability (nuclei count vs DMSO), 5 days (fraction); higher = more cells survive
[1] = test system: HCC-827
Summary of the method: (§1)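 For relative viability, nuclei counts in treated wells were divided by those in vehicle wells. Lung cancer cell lines had been pin-tool dosed in 1536-well plates the day after seeding and cultured for 5 days, then fixed and stained in one step (final 0.05% Triton X-100, 1% formaldehyde, 1 ug/ml Hoechst) and imaged at 4×. Doses were one drug alone or a fixed anchor-drug dose plus five library-drug doses (not always all listed) in √10 steps, and values are duplicate-plate medians.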

[2] = test system: EMC-BAC-2
Summary of the method: as §1

[3] = test system: NCI-H322M
Summary of the method: as §1

[4] = test system: NCI-H23
Summary of the method: as §1

[5] = test system: EKVX
Summary of the method: as §1

[6] = test system: NCI-H2342
Summary of the method: as §1

[7] = test system: PC-14
Summary of the method: as §1

[8] = test system: NCI-H1666
Summary of the method: as §1

[9] = test system: EPLC-272H
Summary of the method: as §1

[10] = test system: NCI-H2405
Summary of the method: as §1

[11] = test system: SK-LU-1
Summary of the method: as §1

[12] = test system: NCI-H1975
Summary of the method: as §1

[13] = test system: LCLC-103H
Summary of the method: as §1

[14] = test system: LU99A
Summary of the method: as §1

[15] = test system: SW 1573
Summary of the method: as §1

[16] = test system: RERF-LC-KJ
Summary of the method: as §1

[17] = test system: NCI-H1563
Summary of the method: as §1

[18] = test system: LXF-289
Summary of the method: as §1

[19] = test system: SW 900
Summary of the method: as §1

[20] = test system: LK-2
Summary of the method: as §1

[21] = test system: NCI-H2126
Summary of the method: as §1

[22] = test system: ChaGo-K-1
Summary of the method: as §1

Question: With `CCN(CC)CCCCNc1ncc2cc(-c3cc(OC)cc(OC)c3)c(NC(=O)NC(C)(C)C)nc2n1` + CCNC(=O)c1noc(-c2cc(C(C)C)c(O)cc2O)c1-c1ccc(CN2CCOCC2)cc1 [Luminespib] (partner 0.01 µM) as the compound, how does the relative viability ([1]; first compound 0.01 µM) read?
Answer: 0.675

Question: And the relative viability ([1]; first compound 0.03162 µM)?
Answer: 0.891

Question: And the relative viability ([1]; first compound 0.1 µM)?
Answer: 0.77

Question: What about the relative viability ([1]; first compound 0.3162 µM) of the same compound?
Answer: 0.774

Question: And the relative viability ([1]; first compound 1 µM)?
Answer: 0.587

Question: And the relative viability ([2]; first compound 0.01 µM)?
Answer: 1.27

Question: What about the relative viability ([2]; first compound 0.03162 µM) of the same compound?
Answer: 1.16

Question: What about the relative viability ([2]; first compound 0.1 µM) of the same compound?
Answer: 1.08

Question: And the relative viability ([2]; first compound 0.3162 µM)?
Answer: 1.35

Question: And the relative viability ([2]; first compound 1 µM)?
Answer: 1.05

Question: And the relative viability ([3]; first compound 0.01 µM)?
Answer: 0.884

Question: What about the relative viability ([3]; first compound 0.03162 µM) of the same compound?
Answer: 0.854

Question: And the relative viability ([3]; first compound 0.1 µM)?
Answer: 0.859

Question: And the relative viability ([3]; first compound 0.3162 µM)?
Answer: 0.988

Question: And the relative viability ([3]; first compound 1 µM)?
Answer: 0.799

Question: And the relative viability ([4]; first compound 0.01 µM)?
Answer: 0.214

Question: And the relative viability ([4]; first compound 0.03162 µM)?
Answer: 0.203

Question: What about the relative viability ([4]; first compound 0.1 µM) of the same compound?
Answer: 0.241

Question: And the relative viability ([4]; first compound 0.3162 µM)?
Answer: 0.202

Question: And the relative viability ([4]; first compound 1 µM)?
Answer: 0.205

Question: And the relative viability ([5]; first compound 0.01 µM)?
Answer: 0.842

Question: And the relative viability ([5]; first compound 0.03162 µM)?
Answer: 0.909

Question: And the relative viability ([5]; first compound 0.1 µM)?
Answer: 0.934

Question: And the relative viability ([5]; first compound 0.3162 µM)?
Answer: 0.971

Question: And the relative viability ([5]; first compound 1 µM)?
Answer: 0.83

Question: What about the relative viability ([6]; first compound 0.01 µM) of the same compound?
Answer: 0.775

Question: What about the relative viability ([6]; first compound 0.03162 µM) of the same compound?
Answer: 0.833

Question: What about the relative viability ([6]; first compound 0.1 µM) of the same compound?
Answer: 0.768

Question: And the relative viability ([6]; first compound 0.3162 µM)?
Answer: 0.633

Question: And the relative viability ([6]; first compound 1 µM)?
Answer: 0.811

Question: What about the relative viability ([7]; first compound 0.01 µM) of the same compound?
Answer: 0.138

Question: And the relative viability ([7]; first compound 0.03162 µM)?
Answer: 0.126

Question: What about the relative viability ([7]; first compound 0.1 µM) of the same compound?
Answer: 0.176

Question: What about the relative viability ([7]; first compound 0.3162 µM) of the same compound?
Answer: 0.141

Question: What about the relative viability ([7]; first compound 1 µM) of the same compound?
Answer: 0.138

Question: What about the relative viability ([8]; first compound 0.01 µM) of the same compound?
Answer: 0.944

Question: What about the relative viability ([8]; first compound 0.03162 µM) of the same compound?
Answer: 0.971

Question: What about the relative viability ([8]; first compound 0.1 µM) of the same compound?
Answer: 1.04

Question: And the relative viability ([8]; first compound 0.3162 µM)?
Answer: 1.02

Question: And the relative viability ([8]; first compound 1 µM)?
Answer: 0.794

Question: And the relative viability ([9]; first compound 0.01 µM)?
Answer: 0.26

Question: And the relative viability ([9]; first compound 0.03162 µM)?
Answer: 0.266

Question: What about the relative viability ([9]; first compound 0.1 µM) of the same compound?
Answer: 0.204

Question: And the relative viability ([9]; first compound 0.3162 µM)?
Answer: 0.219

Question: And the relative viability ([9]; first compound 1 µM)?
Answer: 0.329

Question: And the relative viability ([10]; first compound 0.01 µM)?
Answer: 0.649

Question: And the relative viability ([10]; first compound 0.03162 µM)?
Answer: 0.644

Question: What about the relative viability ([10]; first compound 0.1 µM) of the same compound?
Answer: 0.76

Question: What about the relative viability ([10]; first compound 0.3162 µM) of the same compound?
Answer: 0.654

Question: And the relative viability ([10]; first compound 1 µM)?
Answer: 0.684

Question: What about the relative viability ([11]; first compound 0.01 µM) of the same compound?
Answer: 0.199

Question: What about the relative viability ([11]; first compound 0.03162 µM) of the same compound?
Answer: 0.197

Question: What about the relative viability ([11]; first compound 0.1 µM) of the same compound?
Answer: 0.197

Question: What about the relative viability ([11]; first compound 0.3162 µM) of the same compound?
Answer: 0.236

Question: What about the relative viability ([11]; first compound 1 µM) of the same compound?
Answer: 0.168

Question: What about the relative viability ([12]; first compound 0.01 µM) of the same compound?
Answer: 0.161

Question: And the relative viability ([12]; first compound 0.03162 µM)?
Answer: 0.148

Question: And the relative viability ([12]; first compound 0.1 µM)?
Answer: 0.201

Question: And the relative viability ([12]; first compound 0.3162 µM)?
Answer: 0.366

Question: And the relative viability ([12]; first compound 1 µM)?
Answer: 0.199

Question: And the relative viability ([13]; first compound 0.01 µM)?
Answer: 1.07

Question: And the relative viability ([13]; first compound 0.03162 µM)?
Answer: 1.06

Question: What about the relative viability ([13]; first compound 0.1 µM) of the same compound?
Answer: 0.924

Question: And the relative viability ([13]; first compound 0.3162 µM)?
Answer: 1.01

Question: What about the relative viability ([13]; first compound 1 µM) of the same compound?
Answer: 0.739

Question: What about the relative viability ([14]; first compound 0.01 µM) of the same compound?
Answer: 0.301

Question: And the relative viability ([14]; first compound 0.03162 µM)?
Answer: 0.251

Question: And the relative viability ([14]; first compound 0.1 µM)?
Answer: 0.197

Question: What about the relative viability ([14]; first compound 0.3162 µM) of the same compound?
Answer: 0.25

Question: And the relative viability ([14]; first compound 1 µM)?
Answer: 0.27

Question: And the relative viability ([15]; first compound 0.01 µM)?
Answer: 0.238

Question: And the relative viability ([15]; first compound 0.03162 µM)?
Answer: 0.297

Question: What about the relative viability ([15]; first compound 0.1 µM) of the same compound?
Answer: 0.239

Question: And the relative viability ([15]; first compound 0.3162 µM)?
Answer: 0.177

Question: What about the relative viability ([15]; first compound 1 µM) of the same compound?
Answer: 0.172

Question: What about the relative viability ([16]; first compound 0.01 µM) of the same compound?
Answer: 1.24

Question: What about the relative viability ([16]; first compound 0.03162 µM) of the same compound?
Answer: 1.21

Question: What about the relative viability ([16]; first compound 0.1 µM) of the same compound?
Answer: 1.84

Question: What about the relative viability ([16]; first compound 0.3162 µM) of the same compound?
Answer: 1.35

Question: And the relative viability ([16]; first compound 1 µM)?
Answer: 1.27

Question: And the relative viability ([17]; first compound 0.01 µM)?
Answer: 0.537

Question: And the relative viability ([17]; first compound 0.03162 µM)?
Answer: 0.532

Question: And the relative viability ([17]; first compound 0.1 µM)?
Answer: 0.549

Question: And the relative viability ([17]; first compound 0.3162 µM)?
Answer: 0.597

Question: And the relative viability ([17]; first compound 1 µM)?
Answer: 0.545

Question: And the relative viability ([18]; first compound 0.01 µM)?
Answer: 0.727

Question: And the relative viability ([18]; first compound 0.03162 µM)?
Answer: 0.668

Question: What about the relative viability ([18]; first compound 0.1 µM) of the same compound?
Answer: 0.699

Question: And the relative viability ([18]; first compound 0.3162 µM)?
Answer: 0.801

Question: And the relative viability ([18]; first compound 1 µM)?
Answer: 0.577

Question: What about the relative viability ([19]; first compound 0.01 µM) of the same compound?
Answer: 0.172

Question: And the relative viability ([19]; first compound 0.03162 µM)?
Answer: 0.182

Question: And the relative viability ([19]; first compound 0.3162 µM)?
Answer: 0.15

Question: And the relative viability ([19]; first compound 1 µM)?
Answer: 0.188

Question: What about the relative viability ([20]; first compound 0.01 µM) of the same compound?
Answer: 0.153

Question: What about the relative viability ([20]; first compound 0.03162 µM) of the same compound?
Answer: 0.207

Question: What about the relative viability ([20]; first compound 0.1 µM) of the same compound?
Answer: 0.202

Question: What about the relative viability ([20]; first compound 0.3162 µM) of the same compound?
Answer: 0.183

Question: And the relative viability ([20]; first compound 1 µM)?
Answer: 0.184

Question: And the relative viability ([21]; first compound 0.01 µM)?
Answer: 0.985

Question: What about the relative viability ([21]; first compound 0.03162 µM) of the same compound?
Answer: 0.876

Question: And the relative viability ([21]; first compound 0.1 µM)?
Answer: 0.953

Question: What about the relative viability ([21]; first compound 0.3162 µM) of the same compound?
Answer: 0.92

Question: And the relative viability ([21]; first compound 1 µM)?
Answer: 0.898

Question: What about the relative viability ([22]; first compound 0.01 µM) of the same compound?
Answer: 0.618

Question: What about the relative viability ([22]; first compound 0.03162 µM) of the same compound?
Answer: 0.638

Question: What about the relative viability ([22]; first compound 0.1 µM) of the same compound?
Answer: 0.727

Question: And the relative viability ([22]; first compound 0.3162 µM)?
Answer: 0.679

Question: And the relative viability ([22]; first compound 1 µM)?
Answer: 0.811
